This passage reports MIC, HD-50 and IC-50 results from patent publication US5504190A, “Equimolar multiple oligomer mixtures, especially oligopeptide mixtures” (priority 1994, dated 1996).

Data set [1] deals with Candida albicans ATCC 10231. In words: antifungal assay, growth inhibition of C. albicans (OD 620 nm). It counts as cell-based. The protocol:
Antifungal studies were carried out Candida albicans ATCC 10231 as the target microbe. The yeast culture was spread onto YM agar plates and incubated at 30° C. for 48 hours. Three colonies of this culture (about 1 mm in diameter each) were then inoculated in 5 ml of 1 X PBS solution. The suspension was vortexed and diluted 10-fold in YM broth, for an approximate final concentration of 10^5 to 5×10^5 CFU (colony forming units)/ml.
Actual concentrations of yeast cultures were determined by plating 100 μl of different solutions of the culture solution (10^-3, 10^-4 and 10^-5) onto solid YM agar plates. After 48 hours of incubation at 30° C., CFU formed were counted from each plate.
The assays were carried out in 96-well tissue culture plates. Eight wells containing only medium of YM broth served as negative controls, whereas eight wells containing medium and yeast culture served as positive controls. These controls were used to detect possible medium contamination and to provide a measure of uninhibited growth of the yeast.
For screening studies, oligopeptide mixtures were added to the yeast suspension in duplicates to reach a final concentration of 1.5 mg/ml. […] The plates were incubated over a period of 48 hours at 30° C., and the optical density (OD) at 24 and 48 hours was determined at 620 nm.

The test system of data set [2] is human red blood cells. In kind it is cell-based. As for the experimental part:
Assays were carried out in 96-well culture tissue plates. Four wells per plate contained 125 μl of a non-peptide positive control of the surfactant Triton X-100 (poly)oxyethanol (9) octyl phenyl ether; 1 percent in deionized water!, and four wells per plate contained 115 μl of a control blank of phosphate-buffered saline (PBS). The hemolytic peptide melittin was used as comparative control. The controls served to detect possible contamination and to calculate the percent hemolysis of each peptide.
Human red blood cells (RBC's) were washed with PBS and centrifuged to separate them from the serum. The cells are then resuspended in PBS to a final suspension of 0.5 percent RBC. This suspension (125 μl) was added to the peptide mixture and control solutions. The plates were incubated at 37° C. for one hour and centrifuged at 2800 rpm for five minutes. The release of hemoglobin resulting from the cell lysis was determined by measuring the OD at 414 nm of 100 μl of the supernatant.

Data set [3] deals with Staphylococcus aureus (ATCC 29213). Nature of the data set: microbe, parasite or virus in culture. The protocol: (§1) Escherichia coli (ATCC 25922) was used as Gram-negative (-) and Staphylococcus aureus (ATCC 29213) as Gram-positive (+) bacteria. Bacteria were grown overnight (about 18 hours) at 37° C. in Mueller-Hinton (MH) broth. This culture was reinoculated and incubated at 37° C. to reach the exponential phase of bacteria growth; i.e., a final bacterial suspension containing about 10^5 to 5×10^5 colony-forming units (CFU)/ml. The concentration of cells was established by plating 100 μl of different dilutions of the culture solution (e.g., 10^-2, 10^-3 and 10^-4) onto solid agar plates. Following an overnight (about 18 hours) incubation at 37° C., the CFU thus formed were counted on each agar plate.
(§2) 96-Well tissue culture plates were utilized, with eight wells per plate containing only medium as control blanks, whereas eight other wells contained medium plus cells as a positive growth control. These controls were used to detect possible medium contamination and to provide a measure of uninhibited growth of the microorganisms.
(§3) For initial screening studies, oligopeptide sets were added to the bacterial suspension to reach a final concentration of 1 mg/ml.
(§4) The plates were incubated overnight (about 18 hours) at 37° C., and the optical density (OD) determined at 620 nm after different times of incubation.

Data set [4] has as its system Escherichia coli (ATCC 25922). In words: antimicrobial assay, growth inhibition of E. coli (OD 620 nm). In kind it is cell-based. Particulars: Tables 1 and 2. The protocol:
as §1, §2, §3, §4

[5] abbreviates: 7-mer studies, Tables 5 and 6 and parent 6-mer.

Values after ≈ are worked out from the molar mass of the structure shown.

As to `C[C@@H]1[C@H](O)[C@@H](C)/C=C/C=C/CC/C=C/C=C/C=C/C=C/[C@H](O[C@@H]2O[C@H](C)[C@@H](O)[C@H](N)[C@@H]2O)C[C@@H]2O[C@](O)(C[C@@H](O)[C@H](O)CC[C@@H](O)C[C@@H](O)C[C@@H](O)CC(=O)O[C@H]1C)C[C@H](O)[C@H]2C(=O)O` [Nystatin, reference compound], in data set [1] (Candida albicans, ATCC10231), the MIC was 2 to 4 µg/mL (≈ 2.16 to 4.32 µM).

Consider Ac-FRWLLF-NH2 [FRWLLF], for which, in data set [2], the HD-50 is 34 µg/mL. Besides, in data set [3] (Tables 3 and 4), the IC-50 came out at 11 µg/mL and the MIC was in the range of 9 to 18 µg/mL.

With Ac-FRWLLK-NH2 [FRWLLK], the HD-50 in data set [2] was determined as 356 µg/mL. In data set [4], this molecule showed an IC-50 of 5 µg/mL and an MIC of 5 to 10 µg/mL.

For Ac-FRWLLR-NH2 [FRWLLR], the HD-50 in data set [2] was found to be 171 µg/mL. In data set [4], this molecule came in with an IC-50 of 4 µg/mL and an MIC of 5 to 10 µg/mL. In data set [3] (Tables 3 and 4), the IC-50 amounted to 13 µg/mL and the MIC lay within 24 to 48 µg/mL.

The molecule Ac-IRRWWRF-NH2 [IRRWWRF] registered an HD-50 in data set [2] of 142 µg/mL. In data set [3] (setting [5]), the IC-50 is 4.7 µg/mL and the MIC was 4 to 8 µg/mL.

In data set [1] (Table 9), Ac-KRRWWRF-NH2 [KRRWWRF] displayed an IC-50 of 40 µg/mL and an MIC of 45 to 62 µg/mL.

On to Ac-RRWWCH-NH2 [RRWWCH], for which the HD-50 in data set [2] came to 128 µg/mL. In data set [3] (Tables 3 and 4), this molecule came in with an IC-50 of 6.2 µg/mL and an MIC of 5.5 to 11 µg/mL.

In data set [1] (Table 9), Ac-RRWWCVR-NH2 [RRWWCVR] displayed an IC-50 of 50 µg/mL and an MIC of 50 to 62 µg/mL.

Molecule Ac-RRWWCW-NH2 [RRWWCW] returned an HD-50 in data set [2] of 11 µg/mL. Besides, in data set [3] (Tables 3 and 4), the IC-50 came out at 4.1 µg/mL and the MIC lay in the range of 4.5 to 9.0 µg/mL.

For Ac-RRWWCY-NH2 [RRWWCY], the HD-50 in data set [2] turned out to be 50 µg/mL. In data set [3] (Tables 3 and 4), this molecule showed an IC-50 of 5.4 µg/mL and an MIC of 4.7 to 9.5 µg/mL.

Molecule Ac-RRWWRFF-NH2 [RRWWRFF] showed an HD-50 in data set [2] of 106 µg/mL. Besides, in data set [3] (setting [5]), the IC-50 worked out at 4.7 µg/mL and the MIC was 4 to 8 µg/mL.

In data set [1] (Table 9), Ac-RRWWRFK-NH2 [RRWWRFK] displayed an IC-50 of 46 µg/mL and an MIC of 50 to 62 µg/mL.

In data set [1] (Table 9), Ac-RRWWRFR-NH2 [RRWWRFR] showed an IC-50 of 45 µg/mL and an MIC of 50 to 62 µg/mL. Further, in data set [3] (setting [5]), the IC-50 amounted to 7.9 µg/mL and the MIC fell in the range of 8 to 16 µg/mL.

In turn, Ac-RRWWRFW-NH2 [RRWWRFW] had an HD-50 in data set [2] of 59 µg/mL. Also, in data set [3] (setting [5]), the IC-50 was 2.5 µg/mL and the MIC lay in the range of 4 to 8 µg/mL.

As to Ac-RRWWRH-NH2 [RRWWRH], in data set [1] (Table 9), the IC-50 was 30.1 µg/mL and the MIC is 40 to 80 µg/mL.

Ac-WRRWWRF-NH2 [WRRWWRF] gave an HD-50 in data set [2] of 158 µg/mL. Further, in data set [3] (setting [5]), the IC-50 came to 5.4 µg/mL and the MIC fell in the range of 4 to 8 µg/mL.

For the molecule Ac-YRRWWRF-NH2 [YRRWWRF], in data set [2], the HD-50 was 219 µg/mL. In data set [3] (setting [5]), the IC-50 amounted to 4.5 µg/mL and the MIC is 4 to 8 µg/mL.
